Measured values: PMC8007834, “Anti-estrogenic and anti-aromatase activities of citrus peels major compounds in breast cancer” (Scientific Reports, 2021)
Values after ≈ are worked out from the molar mass of the structure shown.

What was measured:
[1] = parameters: method as in PMID 21964193; details: naringin 40 and naringenin 80 mg/kg, respectively; cited from earlier work
[2] = tested on: T47D; assay: SRB cytotoxicity assay on T47D; type: cell-based, human; details: Homo sapiens, T47D, ± SD, read-out: IC50 values, cytotoxic effect on T47D
Description: (§1) The assessment was performed in the National Cancer Institute in Egypt (NCI). The half maximal inhibitory concentration (IC50) values were then calculated from three independent experiments, three replicates each for each sample.

[3] = tested on: MCF-7; assay: SRB cytotoxicity assay on MCF7; type: cell-based, human; details: Homo sapiens, MCF7, ± SD, read-out: IC50 values, cytotoxic effect on MCF7
Description: as §1

[4] = tested on: Immature female Swiss albino mice; assay: In vivo estrogenic activity assay; details: 30 mg/kg i.p., 7 days, no estradiol
Description: (§2) Immature female Swiss albino mice (8-13 g) were obtained from the animal house of the Faculty of Pharmacy, The British University in Egypt. All experimental procedures were conducted in compliance with the Animal Research: Reporting of In Vivo Experiments (ARRIVE) guidelines and the National Institutes of Health guide for the care and use of Laboratory animals (NIH Publication No. 85-23, revised 2011) and were approved by the Ethics Committee, Faculty of Pharmacy, The British University in Egypt (Ex-2101). All experiments were performed during the light phase of a light/dark cycle that was started 1 week after acclimatization. The room temperature was adjusted at 25 ± 2 °C. Mice had free access to food and water during the experiments. The experimental design was adopted from[27],[28]. The mice were randomly divided into 9 groups (7-8 mice each) as follows: Group 1: Negative control (NC) receiving only olive oil, s.c.; Group 2: […] For estrogenic activity, Group 3: Genistein phytoestrogen positive control (Gein.) treated group; Group 4: Quercetin (Qrt.) treated group; Group 5: Naringenin (Narn.) treated group and Group 6: Naringin (Nar.) treated group. For anti-estrogenic activity, estradiol was given after treatments by 6 h for Groups 7, 8 and 9 representing […]., respectively. All treatments including genistein were given at a dose of 30 mg/kg dissolved in Tween 80 (1%), i.p., for 7 days. The animals' weights were recorded daily to ensure the safety of the doses used. On the 7th day, the animals were sacrificed, the morphological appearance of the livers was observed, and the uteri were also isolated and weighed. The in vivo estrogenic and anti-estrogenic activities were assessed. The vaginal opening on each day of the study was checked as a sign of puberty. On the 7th day, vaginal swab was taken from the opened vagina to examine the cornification level under light microscope (4× lens). The uteri were excised and weighed after sacrification of mice under anesthesia.

[5] = target: T1, Aromatase enzyme (CYP19) (Homo sapiens, UniProt P11511); assay: In vitro aromatase inhibition assay (dibenzylfluorescein); type: biochemical; details: ± SD
T1 construct: purchased BD Biosciences, San Jose, CA
T1 sequence (P11511 1-503): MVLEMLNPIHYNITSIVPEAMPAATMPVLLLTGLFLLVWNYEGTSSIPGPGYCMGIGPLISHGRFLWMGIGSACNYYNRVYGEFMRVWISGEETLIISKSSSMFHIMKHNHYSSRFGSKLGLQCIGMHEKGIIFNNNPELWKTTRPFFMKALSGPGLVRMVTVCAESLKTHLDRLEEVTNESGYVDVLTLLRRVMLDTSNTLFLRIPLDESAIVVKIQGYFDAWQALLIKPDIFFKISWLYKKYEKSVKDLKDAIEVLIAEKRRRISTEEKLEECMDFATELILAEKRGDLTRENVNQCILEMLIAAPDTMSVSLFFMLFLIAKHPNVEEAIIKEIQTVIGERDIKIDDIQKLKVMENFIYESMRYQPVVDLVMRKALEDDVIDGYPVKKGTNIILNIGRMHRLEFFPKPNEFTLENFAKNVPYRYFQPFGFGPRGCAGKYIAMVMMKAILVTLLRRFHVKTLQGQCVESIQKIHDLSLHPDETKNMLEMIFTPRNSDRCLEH
Description: Aromatase inhibition was quantified by measuring the fluorescent intensity of fluorescein, the hydrolysis product of dibenzylfluorescein, by aromatase, as previously described[29]. In brief, the test substance (10 µL) was pre-incubated with the NADPH regenerating system (90 µL of 2.6 mM NADP^+, 7.6 mM glucose 6-phosphate, 0.8 U/mL glucose 6-phosphate dehydrogenase, 13.9 mM MgCl2, and 1 mg/mL albumin in 50 mM potassium phosphate, pH 7.4) for 10 min at 37 °C before 100 µL of the enzyme and substrate mixture [4 pmol/well enzyme (CYP19, BD Biosciences, San Jose, CA), 0.4 µM dibenzylfluorescein, and 4 mg/mL albumin in 50 mM potassium phosphate, pH 7.4] were added. Then, the reaction mixture was incubated for 30 min at 37 °C to allow aromatase to generate the product and quenched with 75 µL of 2 N NaOH. After the reaction was terminated, shaking was done for 5 min followed by incubation for 2 h at 37 °C to enhance the noise/background ratio, then fluorescence was measured at 485 nm (excitation) and 530 nm (emission). Three independent experiments were performed in duplicates, and the average values were used to construct the dose–response curves.

[6] = tested on: Aromatase; assay: Aromatase protein levels in EAC solid tumors (ELISA); type: in vivo, mice; details: ELISA on tumor homogenates, day 20; quercetin 100, naringenin 50, naringin 100 mg/kg i.p.
From the text: (§3) EAC cells were collected from the ascitic fluid of a female Swiss albino mouse bearing a 10-day old ascitic tumor where approximately 2.5 × 10^6 cells were transplanted, i.m. in the left thigh of female mice. When tumors became palpable (approximately 200–300 mm^3 in volume), treatment was initiated. Forty EAC-tumour bearing mice were randomly allocated into the following groups (n = 10): (1) PC group: positive control group that received only drug vehicle, (2) Qrt.-treated group: Mice were treated with a daily dose of 100 mg/kg of quercetin[30] i.p., (3) Narn.-treated group: Mice were treated with a daily dose of 50 mg/kg of naringenin, i.p.[31], and (4) Nar.-treated group: Mice were treated with a daily dose of 100 mg/kg of naringin, i.p.[32]. Treatment doses were given daily excluding Fridays and Saturdays. Tween 80 (1%) was used as a vehicle. Mice were sacrificed under brief anaesthesia at the 20th day after starting treatment and tumors were collected for further analysis.
Excised tumors were homogenized as 10% (w/v) in phosphate buffered saline. Aromatase concentration was then determined in tissue homogenates using Mouse Aromatase ELISA kit (MyBiosource, USA), according to the manufacturer’s instructions. Optical density equivalent to aromatase levels in samples was determined at 450 nm using a microplate reader.

[7] = tested on: Ehrlich ascites carcinoma (EAC) solid tumor; assay: Ehrlich ascites carcinoma (EAC) solid tumor model, tumor volume; type: in vivo, mice; details: 19th day after treatment; quercetin 100, naringenin 50, naringin 100 mg/kg i.p. daily
From the text: as §3, with “In order to evaluate the anticancer effect of the active isolates (quercetin, naringenin and naringin) and their potential to decrease aromatase levels in tumours, an animal model of Ehrlich ascites carcinoma (EAC) solid tumour was used followed by aromatase ELISA assay as will be described later. Swiss albino female mice (20-25 g) were used for the experiment. EAC cells” for “EAC cells”, “palpable (approximately 200-300 mm^3 in” for “palpable (approximately 200–300 mm^3 in”, “Nar.-treated group: […] Treatment doses” for “Nar.-treated group: Mice were treated with a daily dose of 100 mg/kg of naringin, i.p.[32]. Treatment doses”, “further analysis. Tumor volume was calculated using a digital caliper at days 0, 4, 7, 10, 13, 16, and 19 after treatment, according to the following equation[33]: […]” for “further analysis.”

[8] = SRB cytotoxicity assay on normal HFB4 cells; type: cell-based, human; details: human, normal HFB4 cells, ± SD, read-out: IC50 values, cytotoxic effect on HFB4
Description: The cytotoxic activity of the ethanolic extracts of the peels along with the isolated major phenolics was tested against two human estrogen-dependent breast cancer cell lines, namely, MCF-7 and T47D, as well as the normal human HFB4 cells for assessment of toxicity, using the sulforhodamine B (SRB) assay. The assessment was performed in the National Cancer Institute in Egypt (NCI). The half maximal inhibitory concentration (IC50) values were then calculated from three independent experiments, three replicates each for each sample.

[9] = tested on: Immature female Swiss albino mice; assay: In vivo anti-estrogenic activity assay (with estradiol)
Description: as §2

[10] = flavonoid 30 mg/kg i.p. plus estradiol 12.5 µg/kg s.c., estradiol alone as positive control

In the case of `C[C@@H]1O[C@@H](O[C@H]2[C@H](Oc3cc(O)c4c(c3)O[C@H](c3ccc(O)cc3)CC4=O)O[C@H](CO)[C@@H](O)[C@@H]2O)[C@H](O)[C@H](O)[C@H]1O` [C8], the “estrogenic and anti-estrogenic activities” value [1] is listed as “double directional estrogenic and anti-estrogenic activities”, the IC50 [2] is listed as 3.63 ± 0.1 µg/mL (≈ 6.25 µM) and the IC50 [3] is listed as 2 ± 0.98 µg/mL (≈ 3.45 µM). The average uterine weight [4] was 17.0 ± 2.6 mg, the IC50 [5] was 3.26 µM and the “aromatase levels in tumors, lower than positive control group” value [6] was 59.36%. The “decrease in tumor volume compared to positive control” value [7] was 71.47%, the IC50 [8] was over 50 µg/mL and the “reversal of estradiol-induced vaginal cornification” value ([9]; 30 mg/kg i.p. plus estradiol) was “not fully reversed”. The “reduction in uterine weight compared to estradiol alone” value ([9]; 30 mg/kg i.p. plus estradiol, 7 days) was 57.7%, the “day on which vaginal opening reached 100%” value [9, 10] was 7 days and the “day on which vaginal opening started (delay up to day)” value [9, 10] was 3 days.
